Assay: xn = mol fraction of the nth substance listed
Settings: 101 kPa, Liquid; for viscosity: Falling or rolling sphere viscometry; for speed of sound: Sing-around technique in a fixed-path interferometer; for mass density: Vibrating tube method

CCCCn1cc[n+](C)c1.F[B-](F)(F)F [1-butyl-3-methylimidazolium tetrafluoroborate] + CO
Settings	mass density [kg/m3]	speed of sound [m/s]	viscosity [mPa·s]
278.15 K, x1 = 0.0501	893	1239	1.07
278.15 K, x1 = 0.0999	954.2	1294	1.7
278.15 K, x1 = 0.1498	999.7	1341	2.36
278.15 K, x1 = 0.2	1035.5	1383	3.35
278.15 K, x1 = 0.2999	1087.2	1447	6.22
278.15 K, x1 = 0.4008	1122.5	1493	11.1
278.15 K, x1 = 0.4995	1147.9	1527	20.6
278.15 K, x1 = 0.5999	1167.9	1552	35.3
278.15 K, x1 = 0.6991	1183.3	1573	60.2
278.15 K, x1 = 0.8006	1196.4	1589	108
278.15 K, x1 = 0.8494	1201.6	1596	143
278.15 K, x1 = 0.9006	1206.9	1603	196
278.15 K, x1 = 0.9501	1211.4	1611	264
278.15 K, x1 = 1	1215.9	1615	361
288.15 K, x1 = 0.0501	884	1209	0.905
288.15 K, x1 = 0.0999	945.5	1266	1.4
288.15 K, x1 = 0.1498	991.2	1315	1.91
288.15 K, x1 = 0.2	1027.2	1356	2.65
288.15 K, x1 = 0.2999	1079.1	1422	4.73
288.15 K, x1 = 0.4008	1114.6	1468	8.1
288.15 K, x1 = 0.4995	1140.2	1502	14.5
288.15 K, x1 = 0.5999	1160.3	1527	23.7
288.15 K, x1 = 0.6991	1175.9	1548	38.2
288.15 K, x1 = 0.8006	1189	1564	64.8
288.15 K, x1 = 0.8494	1194.3	1571	82.5
288.15 K, x1 = 0.9006	1199.6	1578	110
288.15 K, x1 = 0.9501	1204	1586	143
288.15 K, x1 = 1	1208.5	1590	186
298.15 K, x1 = 0.0501	875	1179	0.779
298.15 K, x1 = 0.0999	936.8	1238	1.18
298.15 K, x1 = 0.1498	982.8	1288	1.58
298.15 K, x1 = 0.2	1018.9	1331	2.16
298.15 K, x1 = 0.2999	1071	1397	3.73
298.15 K, x1 = 0.4008	1106.8	1443	6.18
298.15 K, x1 = 0.4995	1132.5	1477	10.7
298.15 K, x1 = 0.5999	1152.8	1503	16.9
298.15 K, x1 = 0.6991	1168.5	1524	25.8
298.15 K, x1 = 0.8006	1181.7	1540	41.5
298.15 K, x1 = 0.8494	1187.1	1547	51.6
298.15 K, x1 = 0.9006	1192.4	1554	66.9
298.15 K, x1 = 0.9501	1196.9	1562	83.8
298.15 K, x1 = 1	1201.3	1565	105
308.15 K, x1 = 0.0501	866	1150	0.679
308.15 K, x1 = 0.0999	928.1	1211	1.01
308.15 K, x1 = 0.1498	974.3	1262	1.33
308.15 K, x1 = 0.2	1010.6	1305	1.8
308.15 K, x1 = 0.2999	1063.1	1372	3.02
308.15 K, x1 = 0.4008	1099	1418	4.88
308.15 K, x1 = 0.4995	1124.9	1454	8.17
308.15 K, x1 = 0.5999	1145.3	1479	12.7
308.15 K, x1 = 0.6991	1161.1	1500	18.5
308.15 K, x1 = 0.8006	1174.5	1517	28.4
308.15 K, x1 = 0.8494	1179.9	1524	34.4
308.15 K, x1 = 0.9006	1185.3	1531	43.3
308.15 K, x1 = 0.9501	1189.8	1538	53.3
308.15 K, x1 = 1	1194.2	1542	64.8
318.15 K, x1 = 0.0501	857	1121	0.6
318.15 K, x1 = 0.0999	919.4	1184	0.873
318.15 K, x1 = 0.1498	965.8	1236	1.14
318.15 K, x1 = 0.2	1002.4	1280	1.52
318.15 K, x1 = 0.2999	1055.1	1348	2.51
318.15 K, x1 = 0.4008	1091.3	1394	3.96
318.15 K, x1 = 0.4995	1117.4	1430	6.45
318.15 K, x1 = 0.5999	1137.9	1456	9.83
318.15 K, x1 = 0.6991	1153.8	1477	13.7
318.15 K, x1 = 0.8006	1167.3	1493	20.4
318.15 K, x1 = 0.8494	1172.7	1501	24.2
318.15 K, x1 = 0.9006	1178.2	1508	30
318.15 K, x1 = 0.9501	1182.7	1515	36
318.15 K, x1 = 1	1187.2	1519	42.7

CCn1cc[n+](C)c1.F[B-](F)(F)F [1-ethyl-3-methylimidazolium tetrafluoroborate] + CO
Settings	mass density [kg/m3]	speed of sound [m/s]	viscosity [mPa·s]
278.15 K, x1 = 0.0499	896.8	1233	0.998
278.15 K, x1 = 0.0998	965.1	1283	1.43
278.15 K, x1 = 0.1498	1019.5	1336	1.92
278.15 K, x1 = 0.1998	1062.4	1384	2.52
278.15 K, x1 = 0.3002	1127.9	1465	4.08
278.15 K, x1 = 0.4004	1174.8	1523	6.45
278.15 K, x1 = 0.5001	1209.6	1565	9.84
278.15 K, x1 = 0.6004	1237.2	1597	15.3
278.15 K, x1 = 0.6987	1258.7	1623	24.6
278.15 K, x1 = 0.8005	1277.4	1644	38.9
278.15 K, x1 = 0.8486	1284.8	1653	47.9
278.15 K, x1 = 0.8987	1292.3	1661	61.5
278.15 K, x1 = 0.9476	1298.6	1669	76.5
278.15 K, x1 = 1	1305.3	1677	101
288.15 K, x1 = 0.0499	887.8	1204	0.848
288.15 K, x1 = 0.0998	956.3	1259	1.19
288.15 K, x1 = 0.1498	1010.9	1313	1.57
288.15 K, x1 = 0.1998	1053.8	1361	2.03
288.15 K, x1 = 0.3002	1119.4	1441	3.24
288.15 K, x1 = 0.4004	1166.5	1499	5.01
288.15 K, x1 = 0.5001	1201.4	1540	7.49
288.15 K, x1 = 0.6004	1229.1	1572	11.3
288.15 K, x1 = 0.6987	1250.7	1598	17.7
288.15 K, x1 = 0.8005	1269.5	1619	26.8
288.15 K, x1 = 0.8486	1276.9	1628	32.3
288.15 K, x1 = 0.8987	1284.5	1636	40.2
288.15 K, x1 = 0.9476	1290.9	1644	48.7
288.15 K, x1 = 1	1297.6	1653	62
298.15 K, x1 = 0.0499	878.7	1176	0.732
298.15 K, x1 = 0.0998	947.5	1233	1.01
298.15 K, x1 = 0.1498	1002.2	1289	1.32
298.15 K, x1 = 0.1998	1045.3	1337	1.69
298.15 K, x1 = 0.3002	1111	1418	2.66
298.15 K, x1 = 0.4004	1158.2	1475	4.03
298.15 K, x1 = 0.5001	1193.3	1516	5.91
298.15 K, x1 = 0.6004	1221.1	1548	8.69
298.15 K, x1 = 0.6987	1242.8	1575	13.3
298.15 K, x1 = 0.8005	1261.7	1596	19.5
298.15 K, x1 = 0.8486	1269.2	1605	22.9
298.15 K, x1 = 0.8987	1276.8	1613	28
298.15 K, x1 = 0.9476	1283.2	1621	33.2
298.15 K, x1 = 1	1290	1629	41
308.15 K, x1 = 0.0499	869.6	1147	0.642
308.15 K, x1 = 0.0998	938.7	1208	0.872
308.15 K, x1 = 0.1498	993.6	1265	1.13
308.15 K, x1 = 0.1998	1036.8	1314	1.44
308.15 K, x1 = 0.3002	1102.7	1394	2.23
308.15 K, x1 = 0.4004	1150	1451	3.33
308.15 K, x1 = 0.5001	1185.3	1493	4.79
308.15 K, x1 = 0.6004	1213.2	1525	6.91
308.15 K, x1 = 0.6987	1235	1551	10.4
308.15 K, x1 = 0.8005	1254	1573	14.9
308.15 K, x1 = 0.8486	1261.5	1581	17.1
308.15 K, x1 = 0.8987	1269.1	1589	20.5
308.15 K, x1 = 0.9476	1275.6	1598	23.8
308.15 K, x1 = 1	1282.4	1606	28.8
318.15 K, x1 = 0.0499	860.5	1119	0.57
318.15 K, x1 = 0.0998	929.8	1182	0.772
318.15 K, x1 = 0.1498	984.9	1241	0.979
318.15 K, x1 = 0.1998	1028.3	1290	1.24
318.15 K, x1 = 0.3002	1094.4	1371	1.9
318.15 K, x1 = 0.4004	1141.9	1428	2.81
318.15 K, x1 = 0.5001	1177.3	1470	3.98
318.15 K, x1 = 0.6004	1205.4	1502	5.65
318.15 K, x1 = 0.6987	1227.2	1528	8.37
318.15 K, x1 = 0.8005	1246.3	1550	11.7
318.15 K, x1 = 0.8486	1253.9	1559	13.2
318.15 K, x1 = 0.8987	1261.6	1567	15.7
318.15 K, x1 = 0.9476	1268	1575	17.8
318.15 K, x1 = 1	1274.9	1583	21.2
